In PubChem BioAssay (NCI):
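A five-concentration, 48-hour dose response in 96-well plates underlies each endpoint, interpolated linearly between surrounding concentrations. Definition used: TGI = concentration required for complete inhibition of growth.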

Experiments:
Experiment in all cases: NCI tumour cell line growth inhibition, 48 h
786-0 renal = tested on: 786-0 renal
A498 renal = tested on: A498 renal
A549 NSCLC = tested on: A549 NSCLC
ACHN renal = tested on: ACHN renal
BT-549 breast = tested on: BT-549 breast
CAKI-1 renal = tested on: CAKI-1 renal
CCRF-CEM leukemia = tested on: CCRF-CEM leukemia
COLO 205 colon = tested on: COLO 205 colon
DLD-1 colon = tested on: DLD-1 colon
DMS 114 small cell lung = tested on: DMS 114 small cell lung
DMS 273 small cell lung = tested on: DMS 273 small cell lung
DU-145 prostate = tested on: DU-145 prostate
EKVX NSCLC = tested on: EKVX NSCLC
HCC-2998 colon = tested on: HCC-2998 colon
HCT-116 colon = tested on: HCT-116 colon
HCT-15 colon = tested on: HCT-15 colon
HL-60(TB) leukemia = tested on: HL-60(TB) leukemia
HOP-18 NSCLC = tested on: HOP-18 NSCLC
HOP-62 NSCLC = tested on: HOP-62 NSCLC
HOP-92 NSCLC = tested on: HOP-92 NSCLC
HS 578T breast = tested on: HS 578T breast
HT29 colon = tested on: HT29 colon
IGROV1 ovarian = tested on: IGROV1 ovarian
K-562 leukemia = tested on: K-562 leukemia
KM12 colon = tested on: KM12 colon
KM20L2 colon = tested on: KM20L2 colon
LOX IMVI melanoma = tested on: LOX IMVI melanoma
LXFL 529 NSCLC = tested on: LXFL 529 NSCLC
M14 melanoma = tested on: M14 melanoma
M19-MEL melanoma = tested on: M19-MEL melanoma
MALME-3M melanoma = tested on: MALME-3M melanoma
MCF7 breast = tested on: MCF7 breast
MDA-MB-231 breast = tested on: MDA-MB-231 breast
MDA-MB-435 = tested on: MDA-MB-435
MDA-N = tested on: MDA-N
MOLT-4 leukemia = tested on: MOLT-4 leukemia
NCI-H226 lung = tested on: NCI-H226 lung
NCI-H23 lung = tested on: NCI-H23 lung
NCI-H460 lung = tested on: NCI-H460 lung
NCI-H522 lung = tested on: NCI-H522 lung
NCI/ADR-RES ovarian = tested on: NCI/ADR-RES ovarian
OVCAR-3 ovarian = tested on: OVCAR-3 ovarian
OVCAR-4 ovarian = tested on: OVCAR-4 ovarian
OVCAR-5 ovarian = tested on: OVCAR-5 ovarian
OVCAR-8 ovarian = tested on: OVCAR-8 ovarian
PC-3 prostate = tested on: PC-3 prostate
RPMI-8226 leukemia = tested on: RPMI-8226 leukemia
RXF 393 renal = tested on: RXF 393 renal
RXF-631 renal = tested on: RXF-631 renal
SF-268 CNS = tested on: SF-268 CNS
SF-295 CNS = tested on: SF-295 CNS
SF-539 CNS = tested on: SF-539 CNS
SK-MEL-2 melanoma = tested on: SK-MEL-2 melanoma
SK-MEL-28 melanoma = tested on: SK-MEL-28 melanoma
SK-MEL-5 melanoma = tested on: SK-MEL-5 melanoma
SK-OV-3 ovarian = tested on: SK-OV-3 ovarian
SN12C renal = tested on: SN12C renal
SNB-19 CNS = tested on: SNB-19 CNS
SNB-75 CNS = tested on: SNB-75 CNS
SNB-78 CNS = tested on: SNB-78 CNS
SR leukemia = tested on: SR leukemia
SW-620 colon = tested on: SW-620 colon
T-47D breast = tested on: T-47D breast
TK-10 renal = tested on: TK-10 renal
U251 CNS = tested on: U251 CNS
UACC-257 melanoma = tested on: UACC-257 melanoma
UACC-62 melanoma = tested on: UACC-62 melanoma
UO-31 renal = tested on: UO-31 renal
XF 498 CNS = tested on: XF 498 CNS

Question: With O=C1CCC(C(=O)O)C2=C1CCCC2 (centres undefined) as the molecule, how does the TGI (786-0 renal) read?
Answer: > 100 µM

Question: What about the TGI (A498 renal) of the same molecule?
Answer: > 100 µM

Question: What about the TGI (A549 NSCLC) of the same molecule?
Answer: > 100 µM

Question: What about the TGI (ACHN renal) of the same molecule?
Answer: > 100 µM

Question: And the TGI (BT-549 breast)?
Answer: > 100 µM

Question: What about the TGI (CAKI-1 renal) of the same molecule?
Answer: > 100 µM

Question: And the TGI (CCRF-CEM leukemia)?
Answer: > 100 µM

Question: What about the TGI (COLO 205 colon) of the same molecule?
Answer: > 100 µM

Question: What about the TGI (DLD-1 colon) of the same molecule?
Answer: > 100 µM

Question: And the TGI (DMS 114 small cell lung)?
Answer: > 100 µM

Question: What about the TGI (DMS 273 small cell lung) of the same molecule?
Answer: > 100 µM

Question: And the TGI (DU-145 prostate)?
Answer: > 100 µM

Question: What about the TGI (EKVX NSCLC) of the same molecule?
Answer: > 100 µM

Question: What about the TGI (HCC-2998 colon) of the same molecule?
Answer: > 100 µM

Question: And the TGI (HCT-116 colon)?
Answer: > 100 µM

Question: What about the TGI (HCT-15 colon) of the same molecule?
Answer: > 100 µM

Question: And the TGI (HL-60(TB) leukemia)?
Answer: > 100 µM

Question: And the TGI (HOP-18 NSCLC)?
Answer: > 100 µM

Question: And the TGI (HOP-62 NSCLC)?
Answer: > 100 µM

Question: And the TGI (HOP-92 NSCLC)?
Answer: > 100 µM

Question: What about the TGI (HS 578T breast) of the same molecule?
Answer: > 100 µM

Question: And the TGI (HT29 colon)?
Answer: > 100 µM

Question: And the TGI (IGROV1 ovarian)?
Answer: > 100 µM

Question: What about the TGI (K-562 leukemia) of the same molecule?
Answer: > 100 µM

Question: What about the TGI (KM12 colon) of the same molecule?
Answer: > 100 µM

Question: What about the TGI (KM20L2 colon) of the same molecule?
Answer: > 100 µM

Question: And the TGI (LOX IMVI melanoma)?
Answer: > 100 µM

Question: And the TGI (LXFL 529 NSCLC)?
Answer: > 100 µM

Question: What about the TGI (M14 melanoma) of the same molecule?
Answer: > 100 µM

Question: What about the TGI (M19-MEL melanoma) of the same molecule?
Answer: > 100 µM

Question: And the TGI (MALME-3M melanoma)?
Answer: > 100 µM

Question: And the TGI (MCF7 breast)?
Answer: > 100 µM

Question: And the TGI (MDA-MB-231 breast)?
Answer: > 100 µM

Question: What about the TGI (MDA-MB-435) of the same molecule?
Answer: > 100 µM

Question: And the TGI (MDA-N)?
Answer: > 100 µM

Question: And the TGI (MOLT-4 leukemia)?
Answer: > 100 µM

Question: And the TGI (NCI-H226 lung)?
Answer: > 21.5 µM

Question: And the TGI (NCI-H23 lung)?
Answer: > 100 µM

Question: And the TGI (NCI-H460 lung)?
Answer: > 100 µM

Question: What about the TGI (NCI-H522 lung) of the same molecule?
Answer: > 100 µM

Question: And the TGI (NCI/ADR-RES ovarian)?
Answer: > 100 µM

Question: What about the TGI (OVCAR-3 ovarian) of the same molecule?
Answer: > 100 µM

Question: What about the TGI (OVCAR-4 ovarian) of the same molecule?
Answer: > 100 µM

Question: What about the TGI (OVCAR-5 ovarian) of the same molecule?
Answer: > 100 µM

Question: And the TGI (OVCAR-8 ovarian)?
Answer: > 100 µM

Question: What about the TGI (PC-3 prostate) of the same molecule?
Answer: > 100 µM

Question: What about the TGI (RPMI-8226 leukemia) of the same molecule?
Answer: > 100 µM

Question: What about the TGI (RXF 393 renal) of the same molecule?
Answer: > 100 µM

Question: What about the TGI (RXF-631 renal) of the same molecule?
Answer: > 100 µM

Question: What about the TGI (SF-268 CNS) of the same molecule?
Answer: > 100 µM

Question: What about the TGI (SF-295 CNS) of the same molecule?
Answer: > 100 µM

Question: What about the TGI (SF-539 CNS) of the same molecule?
Answer: > 100 µM

Question: What about the TGI (SK-MEL-2 melanoma) of the same molecule?
Answer: > 100 µM

Question: And the TGI (SK-MEL-28 melanoma)?
Answer: > 100 µM

Question: What about the TGI (SK-MEL-5 melanoma) of the same molecule?
Answer: > 100 µM

Question: What about the TGI (SK-OV-3 ovarian) of the same molecule?
Answer: > 100 µM

Question: What about the TGI (SN12C renal) of the same molecule?
Answer: > 100 µM

Question: And the TGI (SNB-19 CNS)?
Answer: > 100 µM

Question: What about the TGI (SNB-75 CNS) of the same molecule?
Answer: > 100 µM

Question: What about the TGI (SNB-78 CNS) of the same molecule?
Answer: > 100 µM

Question: And the TGI (SR leukemia)?
Answer: > 100 µM

Question: What about the TGI (SW-620 colon) of the same molecule?
Answer: > 100 µM

Question: What about the TGI (T-47D breast) of the same molecule?
Answer: > 100 µM

Question: And the TGI (TK-10 renal)?
Answer: > 100 µM

Question: What about the TGI (U251 CNS) of the same molecule?
Answer: > 29.8 µM

Question: What about the TGI (UACC-257 melanoma) of the same molecule?
Answer: > 100 µM

Question: What about the TGI (UACC-62 melanoma) of the same molecule?
Answer: > 100 µM

Question: And the TGI (UO-31 renal)?
Answer: > 100 µM

Question: What about the TGI (XF 498 CNS) of the same molecule?
Answer: > 100 µM
